In patent publication US11213481B2, “Tumescent drug delivery” (priority 2004, dated 2022):
≈ marks a conversion by molar mass, not a printed value. Where “and” joins values, the source holds several entries; their conditions need not be identical. Identical values can stand only once. Like-named read-outs stand apart in the source and are kept apart here.

What was measured:
[1] = 1 gm at the end of the surgery; 405 abdominal surgery patients; cited from earlier work
[2] = tested on: platelet aggregation induced by ADP, epinephrine and collagen; details: cited from earlier work
clinical = details: human, in vivo
Protocol: A clinical pharmacologic investigation was conducted to compare the pharmacokinetic advantages of two modes of systemic antibiotic delivery, Tumescent antibiotic delivery (TAD), which involves the delivery of a relatively large volume of an antibiotic-containing solution to the subcutaneous compartment, and intravenous antibiotic delivery (IVAD), which results in direct delivery of antibiotics to the blood stream, for prophylaxis of SSI.
With Institutional Review Board (IRB) approval, the absorption pharmacokinetics of tumescent antibiotic delivery (TAD) and intravenous antibiotic delivery (IVAD) were tested in human subjects and the antibiotic delivery modes were evaluated with respect to the area under the curve (AUC) of antibiotic concentration as a function of time and peak antibiotic concentration (Cmax) in serum and TISF. 4 female subjects participated in at least one study, one subject volunteered for 2 separate studies. 5 studies were conducted: 3 involved TAD to the abdomen, 1 involved TAD to the hips and outer thighs and 1 involved TAD to the breasts. […] Each of the 5 studies consisted of 2 to 3 pharmacokinetic procedures, for a total of 14 procedures. Any procedures conducted on an individual subject were separated by at least one week. In 13 procedures only IVAD or TAD, was used. In one procedure both IVAD and TAD were used concurrently, with IVAD started and finished within five minutes after completing TAD.
TAD was conducted as described herein. Following TAD, sequential 10 ml samples of tumescent adipose tissue were obtained using a hand-held syringe-liposuction technique. Sampling began immediately after completing the TAD infiltration (T0), and continuing until the patients reported significant discomfort. Liposuction aspirate samples were obtained at 0, 1, 2, 3, 4, 6, and 8 hours in all procedures; in 4 TAD procedures, sampling continued until 10 hours. Sequential serum samples for measurement of antibiotic concentration in serum after TAD ([Serum]TAD) were obtained simultaneously.
For IVAD, the antibiotic was delivered into an antecubital vein. Following IVAD, serum samples were taken from the contralateral arm via an indwelling venous catheter beginning immediately after completion of the antibiotic delivery (T0).
The samples of liposuction aspirate were centrifuged to obtain infranatant TISF, which comprises minimally blood-tinged tissue-free residual tumescent solution.
AUC (Area Under the Curve) of drug concentration as a function of time, a metric for measuring the cumulative exposure to an individual drug within a specified tissue, was estimated for time T0 to time Tn using the trapezoid rule: […]

[3] = tested on: Staphyloccus aureus (MRSA) ATCC 33592; experiment: Minimum Bactericidal Concentration (MBC); type: cell-based, Staphylococcus aureus
Description: Determinations of MBC followed the method described in “Report on the Working Party on Antibiotic Sensitivity Testing of the British Society of Antimicrobial Chemotherapy: A Guide to Sensitivity Testing.”

[4] = tested on: Staphyloccus aureus (MRSA) ATCC 33592; experiment: Minimum Inhibitory Concentration (MIC); details: Staphylococcus aureus
Protocol: Following inoculation, survival of test microorganisms was determined.

[5] = routine local anesthesia with lidocaine; cited from earlier work
[6] = cited from earlier work
platelet function = experiment: Bleeding time and bleeding area before and after tumescent lidocaine exposure (preliminary experiment); type: in vivo, human
Protocol: The skin of the left and right thigh of a subject is cleaned and allowed to dry. […] Simultaneous 4 mm deep puncture wounds are made to the same area of the left and right thighs with disposable lancets. The puncture sites are blotted with filter paper every 30 seconds, until bleeding stops and the bleeding time for each thigh is recorded. The bleeding times of the left and right thigh are compared to determine if administration of TLAnti increases bleeding time. Normal bleeding time measured by the Duke method is 1 to 3 minutes.
In a preliminary experiment, bleeding time and bleeding area were measured in a patient before and after tumescent lidocaine exposure. […] In contrast, there was a 40% increase in Average Bleeding Area (BA). Bleeding Area (BA) was a more sensitive and a more specific test for platelet function compared to Bleeding Time (BT). […] In otherwords, TAD may reduce the risk of both post-operative surgical site infection and post-operative thromboembolism.

S. aureus = details: effect increases with greater duration of exposure; cited from earlier work
[7] = cited from earlier work; remark: listed apart in the source
[8] = cited from earlier work; remark: listed apart in the source
[9] = after vs before tumescent lidocaine exposure
[10] = post-op tumescent lidocaine exposure, Pt# 1, tests T3, T4

Structure (SMILES): O=C(Cc1cccs1)N[C@@H]1C(=O)N2C(C(=O)[O-])=C(C[n+]3ccccc3)CS[C@H]12 [cephaloridine]
- incidence of wound infection, intravenous vs intra incisional [1]: no significant difference

Structure (SMILES): CCOC(=O)c1ccc(N)cc1 [benzocaine]
- platelet aggregation induced by ADP [2]: inhibit

Structure (SMILES): CCCCN1CCCCC1C(=O)Nc1c(C)cccc1C (stereo not drawn) [bupivacaine]
- platelet aggregation induced by ADP [2]: inhibit

Structure (SMILES): Cc1ncc([N+](=O)[O-])n1CCO [Metronidazole]
- interval in which serum concentration of metronidazole exceeded 4 μg/ml (clinical; female): 0 to 12 h
- interval in which serum concentration of metronidazole exceeds 4 μg/ml (clinical; female): 0 to 12 h
- AUC (clinical; female, 500 mg, AUC[Serum]IVAD, metronidazole, Study 4, IVAD dose 500 mg): 122 µg·h/mL
- AUC (clinical; female, 500 mg, AUC[Serum]TAD): 67 µg·h/mL
- AUC (clinical; female, 500 mg, AUC[TISF]TAD): 2600 µg·h/mL
- AUC (clinical; female, 600 mg, AUC[Serum]IVAD, metronidazole, Study 5, IVAD dose 600 mg): 127 µg·h/mL
- AUC (clinical; female, 600 mg, AUC[Serum]TAD): 81 µg·h/mL
- AUC (clinical; female, 600 mg, AUC[TISF]TAD, metronidazole, Study 5 (Abdomen) TAD1: 600 mg, 172 mg/L in TAD): 1030 µg·h/mL
- ER3 = ER1/ER2 = AUC[TISF]TAD/AUC[Serum]TAD (clinical; 500 mg): 38.8
- ER3 = ER1/ER2 = AUC[TISF]TAD/AUC[Serum]TAD (clinical; 600 mg): 12.7

Structure (SMILES): Cc1nnc(SCC2=C(C(=O)O)N3C(=O)[C@@H](NC(=O)Cn4cnnn4)[C@H]3SC2)s1 [Cefazolin]
- MRSA growth (MBC test) ([3]; Day 1, Cefazolin 62.5 mg/L, MRSA inoculum 4.7 × 10^5 CFU/ml): +
- MRSA growth (MBC test) ([3]; Day 1, Cefazolin 125 mg/L, MRSA inoculum 4.7 × 10^5 CFU/ml): +
- MRSA growth (MBC test) ([3]; Day 1, Cefazolin 250 mg/L, MRSA inoculum 4.7 × 10^5 CFU/ml): 0
- MRSA growth (MBC test) ([3]; Day 2, Cefazolin 62.5 mg/L, MRSA inoculum 4.4 × 10^5 CFU/ml): +
- MRSA growth (MBC test) ([3]; Day 2, Cefazolin 125 mg/L, MRSA inoculum 4.4 × 10^5 CFU/ml): +
- MRSA growth (MBC test) ([3]; Day 2, Cefazolin 250 mg/L, MRSA inoculum 4.4 × 10^5 CFU/ml): 0

Structure (SMILES): CCN(CC)CC(=O)Nc1c(C)cccc1C [Lidocaine]
- MRSA growth (MBC test) ([3]; Day 1, Lidocaine 1,000 mg/L, MRSA inoculum 4.7 × 10^5 CFU/ml): +
- MRSA growth (MBC test) ([3]; Day 2, Lidocaine 1,000 mg/L, MRSA inoculum 4.4 × 10^5 CFU/ml): +
- MRSA growth (MBC test) ([3]; Day 2, Lidocaine 5,000 mg/L, MRSA inoculum 4.4 × 10^5 CFU/ml): +
- MRSA growth (MBC test) ([3]; Day 2, Lidocaine 10,000 mg/L, MRSA inoculum 4.4 × 10^5 CFU/ml): 0
- MIC [4]: ~5000 µg/mL (≈ 21.3 mM)
- duration of local anesthesia [5]: ~2 h
- dosage limitation approved by the FDA for infiltration local anesthesia ([6]; commercial lidocaine (1%=10 gm/L) with epinephrine (1:100,000=10 mg/L)): 7 mg/kg
- maximum safe mg/kg dosage (estimated) ([6]; tumescent lidocaine, TLA without liposuction, adults): ~30 mg/kg
- change in Average Bleeding Time (BT) (platelet function; [9]): essentially no change
- increase in Average Bleeding Area (BA) (platelet function; [9]): 40%
- Lidocaine BA (Average Bleeding Area) (platelet function; post-op tumescent lidocaine exposure, Control BA = 541): BA = 759
- Lidocaine BT (Average Bleeding Time) (platelet function; post-op tumescent lidocaine exposure, Control BT = 6): BT = 5.75
- Bleeding Area BA (platelet function; [10]): 791.81 and 726.03
- Bleeding Time BT × 2 (platelet function; [10]): 10 and 13
- lidocaine concentration that consistently inhibits in-vitro platelet aggregation ([2]; aggregation induced by ADP, epinephrine and collagen): ≥ 0.5 mg/mL
- effect on platelet aggregation ([2]; at safe systemic concentrations (e.g. ≤6 micrograms/ml)): no effect
- platelet aggregation induced by ADP [2]: inhibit
- bactericidal activity in vitro (S. aureus): bactericidal

Structure (SMILES): CO[C@@]1(NC(=O)Cc2cccs2)C(=O)N2C(C(=O)O)=C(COC(N)=O)CS[C@@H]21 [cefoxitin]
- protein binding [7]: approximately 72%
- subjects with penetration P=AUC[ISF]IVAD/AUC[SERUM]IVAD less than 0.1 ([8]; normal controls): 3/10
- Penetration PR ([8]; normal weight volunteers, microdialysis): 0.37±0.26
- degree of antibiotic penetration into ISF relative to normal weight subjects ([8]; obese patients): 22%
- subjects with penetration P=AUC[ISF]IVAD/AUC[SERUM]IVAD less than 0.1 ([8]; obese subjects): 8/10
